Counter-ions that a name gives are not always drawn.
Experiments:
[1] = system: IFN-gamma; experiment: Serum IFN-gamma by ELISA in LPS-challenged mice; type: in vivo, BALB/c mice; details: bupropion 100 mg/kg i.p. 1 h before 600 μg LPS i.p., serum 4 h after LPS
Protocol: (§1) To study the immunomodulatory effects of bupropion we used a mouse model in which TNF production is induced by stimulation with lipopolysaccharide (LPS) (Bozza et al, The PACAP-type I receptor agonist maxadilan from sand fly saliva protects mice against lethal endotoxemia by a mechanism partially dependent on IL-10, Eur. J. Immunol. 28, 3120-3127, 1998). BALB/c mice were injected intraperitoneally (i.p.) with bupropion or placebo 1 h prior to i.p. injection of LPS (600 ug/mouse).
Male, 6 weeks old BALB/c mice were used in LPS-induced shock experiments. All mice were raised and maintained at the animal facilities at the Goncalo Moniz Research Center-FIOCRUZ, and provided with rodent diet and water ad libitum. Animal numbers in experimental groups were the minimum necessary to permit statistical analysis. All animals were sacrificed under anaesthesia. […]
(§2) TNF, IL-1beta, IFN-gamma and IL-10 concentrations in serum samples or in supernatants from macrophage cultures were determined by enzyme-linked immunosorbent assay (ELISA) using antibody pairs and recombinant cytokines from R&D systems (Minneapolis, Minn., USA), according to the manufacturer's instructions. After incubation with streptoavidin-peroxidase conjugate (Sigma), the reaction was developed using 3,3′, 5,5′-tetramethylbenzidine (TMB) peroxidase substrate and read at 450 nm. The serum concentration of nitrite (NO2−) was determined by the Griess reaction, as an indicator of nitric oxide production (Green et al., Analysis of nitrate nitrite and [^15N] nitrite in biological fluids. Anal. Biochem 126, 131-138, 1982). […] The absorbance of the reaction product at 540 nm was measured using an ELISA reader. The NO2^− concentration was determined by using sodium nitrite as standard. Data were analyzed using Student's t test, one-way ANOVA or Newman-Keuls multiple comparison test, using Graph Pad Prism 3.0 software. […]

[2] = system: IL-10; experiment: Serum IL-10 by ELISA in LPS-challenged mice; type: in vivo, BALB/c mice; details: bupropion 100 mg/kg i.p. 1 h before 600 μg LPS i.p., serum 90 min after LPS, hydrochloride
Protocol: as §1
Male, 6 weeks old BALB/c mice were used in LPS-induced shock experiments. […]
as §2, with “reader.” for “reader. The NO2^− concentration was determined by using sodium nitrite as standard. Data were analyzed using Student's t test, one-way ANOVA or Newman-Keuls multiple comparison test, using Graph Pad Prism 3.0 software.”

CC(NC(C)(C)C)C(=O)c1cccc(Cl)c1 (racemic) [bupropion, (.±.)-1-(3-chlorophenyl)-2-[(1,1-dimethylethyl)amino]-1-propanone hydrochloride] was tested, and the “serum IFN-gamma level compared with placebo” value ([1]; listed as bupropion hydrochloride) was “decrease”, the “serum IFN-gamma level compared with placebo” value ([1]; hydrochloride) was “significantly reduced” and the “serum IFN-gamma level compared with placebo” value ([1]; listed as Bupropion, hydrochloride) was “significantly decreased”. The “serum IL-10 level compared with placebo” value [2] was “significantly raised” and the “serum IL-10 level compared with placebo” value ([2]; listed as Bupropion) was “significantly increased”.
